Experimental findings from EP2970215B1, “PYRROLIDINE DERIVATIVES, PHARMACEUTICAL COMPOSITIONS CONTAINING THEM, AND THEIR USE IN THERAPY” (AbbVie Deutschland GmbH & Co. KG, priority 2013, dated 2014) are described below.

The test has as its target T1, human GlyT1c transporter (Homo sapiens, UniProt P48067).
T1 construct: expressed in transfected cells; host or cells: CHO cells (recombinant; line hGlyT1c_5_CHO is named for the uptake assay)
T1 sequence (P48067 1-706): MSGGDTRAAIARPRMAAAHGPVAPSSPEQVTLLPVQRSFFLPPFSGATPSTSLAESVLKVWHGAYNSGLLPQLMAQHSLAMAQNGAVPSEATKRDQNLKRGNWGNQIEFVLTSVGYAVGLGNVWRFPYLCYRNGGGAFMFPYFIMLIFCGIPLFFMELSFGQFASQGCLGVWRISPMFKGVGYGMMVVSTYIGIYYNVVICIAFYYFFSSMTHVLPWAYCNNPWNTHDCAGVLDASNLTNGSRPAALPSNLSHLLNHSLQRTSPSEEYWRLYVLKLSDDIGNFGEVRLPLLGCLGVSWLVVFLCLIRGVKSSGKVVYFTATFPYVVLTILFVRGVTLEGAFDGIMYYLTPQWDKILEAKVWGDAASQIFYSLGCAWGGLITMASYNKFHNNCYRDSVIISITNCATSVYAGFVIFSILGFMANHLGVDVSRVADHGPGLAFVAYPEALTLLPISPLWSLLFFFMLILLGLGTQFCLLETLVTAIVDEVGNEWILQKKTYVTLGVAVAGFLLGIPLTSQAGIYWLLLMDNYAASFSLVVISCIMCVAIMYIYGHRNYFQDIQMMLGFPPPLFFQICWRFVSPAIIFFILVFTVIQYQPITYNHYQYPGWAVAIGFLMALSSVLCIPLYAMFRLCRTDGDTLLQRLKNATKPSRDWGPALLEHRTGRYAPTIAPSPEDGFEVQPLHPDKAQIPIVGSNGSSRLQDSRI
The test can be described thus: Radioligand binding assay using recombinant CHO cell membranes expressing human GlyT1. The source says:
2. Radioligand binding assays using recombinant CHO cell membranes expressing human GlyT1: […]

Setting [1] is: radioligand binding to human GlyT1c transporter-expressing membranes.
The mark [2] stands for this setting: radioligand binding, recombinant CHO cell membranes expressing human GlyT1c.

Structures are written as SMILES. pKi: −log10 of the molar value. Some results are limits rather than exact numbers.

One may read the pKi as the negative decadic logarithm of the Ki, by convention in mol/L. With `COCCN[C@H]1CN(S(=O)(=O)c2cn(C)cn2)C[C@@H]1c1ccccc1` [Example 600, (3R,4S)-N-(2-methoxyethyl)-1-[(1-methyl-1H-imidazol-4-yl)sulfonyl]-4-phenylpyrrolidin-3-amine], the pKi under setting [1] is not below 5.00.

Regarding `Cn1cnc(S(=O)(=O)N2CC3c4ccccc4CCC3(NCc3ccc(C(F)(F)F)cc3Cl)C2)c1` (stereo not shown) [Example 890, N-[2-chloro-4-(trifluoromethyl)benzyl]-2-[(1-methyl-1H-imidazol-4-yl)sulfonyl]-1,2,3,4,5,9b-hexahydro-3aH-benzo[e]isoindol-3a-amine], under setting [2], the pKi was not below 7.00. In the case of `CC(C)c1cccc(N[C@@H]2CN(S(=O)(=O)c3cn(C)cn3)C[C@H]2c2ccc(F)cc2)c1` (relative stereo) [Example 170, trans-4-(4-fluorophenyl)-1-[(1-methyl-1H-imidazol-4-yl)sulfonyl]-N-[3-(propan-2-yl)phenyl]pyrrolidin-3-amine], under setting [1], the negative-log Ki (pKi) was not below 7.00. With `Cn1cnc(S(=O)(=O)N2C[C@H](Nc3ccc(F)cc3)[C@@H](c3ccc(F)cc3)C2)c1` [Example 330, (3R,4S)-N,4-bis(4-fluorophenyl)-1-[(1-methyl-1H-imidazol-4-yl)sulfonyl]pyrrolidin-3-amine], the negative logarithm of the Ki (pKi) under setting [1] was not below 7.00.

As for `Cc1nc(C)c(CN[C@H]2CN(S(=O)(=O)c3cn(C)cn3)C[C@@H]2c2ccccc2)s1` [Example 441, (3R,4S)-N-[(2,4-dimethyl-1,3-thiazol-5-yl)methyl]-1-[(1-methyl-1H-imidazol-4-yl)sulfonyl]-4-phenylpyrrolidin-3-amine], the pKi under setting [1] is not below 5.00.

On to `O=S(=O)(c1ccc(N2CCOCC2)nc1)N1CC(Nc2ccc(F)c(F)c2)C(c2ccccc2)C1` (stereo not shown) [Example 494, N-(3,4-difluorophenyl)-1-{[6-(morpholin-4-yl)pyridin-3-yl]sulfonyl}-4-phenylpyrrolidin-3-amine], for which the negative-log Ki (pKi) under setting [1] was not below 5.00. `Cn1cnc(S(=O)(=O)N2C[C@@H](Nc3cccc(C(F)(F)F)c3)[C@H](c3ccccc3Cl)C2)c1` (relative stereo) [Example 255, trans-4-(2-chlorophenyl)-1-[(1-methyl-1H-imidazol-4-yl)sulfonyl]-N-[3-(trifluoromethyl)phenyl]pyrrolidin-3-amine]: under setting [1], the pKi was not below 7.00. On the same count and under the same terms, with `Cn1cnc(S(=O)(=O)N2C[C@@H](Nc3ccc(F)cc3)[C@H](c3ccccc3Cl)C2)c1` (relative stereo) [Example 253, trans-4-(2-chlorophenyl)-N-(4-fluorophenyl)-1-[(1-methyl-1H-imidazol-4-yl)sulfonyl]pyrrolidin-3-amine] the figure was not below 6.00. For the compound `Cn1cnc(S(=O)(=O)N2C[C@H](NCc3ccc(C(F)(F)F)cc3Cl)[C@@H](c3ccc(F)cc3)C2)c1` [Example 322, (3R,4S)-N-[2-chloro-4-(trifluoromethyl)benzyl]-4-(4-fluorophenyl)-1-[(1-methyl-1H-imidazol-4-yl)sulfonyl]pyrrolidin-3-amine], the negative-log Ki (pKi) under setting [1] was not below 8.00. The same measure, in the same setting: with `Cn1cnc(S(=O)(=O)N2C[C@@H](Nc3ccc(F)cc3)[C@H](c3ccc(F)cc3)C2)c1` [Example 324, (3S,4R)-N,4-bis(4-fluorophenyl)-1-[(1-methyl-1H-imidazol-4-yl)sulfonyl]pyrrolidin-3-amine] the figure was not below 5.00; with `CCCC1CC1CN[C@H]1CN(S(=O)(=O)c2cn(C)cn2)C[C@@H]1c1ccccc1` (stereo partly drawn) [Example 649, (3R,4S)-1-[(1-methyl-1H-imidazol-4-yl)sulfonyl]-4-phenyl-N-[(2-propylcyclopropyl)methyl]pyrrolidin-3-amine], not below 7.00. On the same count and under the same terms, with `Cn1cnc(S(=O)(=O)N2C[C@@H](Nc3ccccc3)[C@H](c3ccccc3F)C2)c1` (relative stereo) [Example 198, trans-4-(2-fluorophenyl)-1-[(1-methyl-1H-imidazol-4-yl)sulfonyl]-N-phenylpyrrolidin-3-amine] the figure was not below 6.00; with `O=c1[nH]c2cc(S(=O)(=O)N3CC(Nc4ccc(F)c(F)c4)C(c4ccccc4)C3)ccc2o1` (stereo not shown) [Example 514, 5-({3-[(3,4-difluorophenyl)amino]-4-phenylpyrrolidin-1-yl}sulfonyl)-1,3-benzoxazol-2(3H)-one], not below 5.00. With `Cn1cnc(S(=O)(=O)N2C[C@@H](Nc3cc(C(F)(F)F)ncn3)[C@H](C3CCCCO3)C2)c1` (relative stereo) [Example 687, N-[Trans-1-[(1-methyl-1H-imidazol-4-yl)sulfonyl]-4-(tetrahydro-2H-pyran-2-yl)pyrrolidin-3-yl]-6-(trifluoromethyl)pyrimidin-4-amine], under setting [1], the pKi was not below 7.00.

In the case of `Cc1ccc(C#N)cc1N[C@@H]1CN(S(=O)(=O)c2cn(C)cn2)C[C@H]1c1ccccc1` (relative stereo) [Example 82, 4-methyl-3-({trans-1-[(1-methyl-1H-imidazol-4-yl)sulfonyl]-4-phenylpyrrolidin-3-yl}amino)benzonitrile], under setting [1], the pKi is not below 5.00. Same read-out and setting: with `Cn1cnc(S(=O)(=O)N2C[C@H](Nc3ccc(Cl)c(C(F)(F)F)c3)[C@@H](c3cocn3)C2)c1` [Example 753] the figure was not below 6.00. The same measure, in the same setting: the result for `CCCCCN(CCCCC)[C@@H]1CN(S(=O)(=O)c2cn(C)cn2)C[C@H]1c1ncccc1F` (relative stereo) [Example 764, Trans-4-(3-fluoropyridin-2-yl)-1-[(1-methyl-1H-imidazol-4-yl)sulfonyl]-N,N-dipentylpyrrolidin-3-amine] reads not below 6.00; that for `Cn1cnc(S(=O)(=O)N2C[C@@H](Nc3cccc(F)c3)[C@H](c3ccc(F)cc3)C2)c1` (relative stereo) [Example 91, trans-N-(3-fluorophenyl)-4-(4-fluorophenyl)-1-[(1-methyl-1H-imidazol-4-yl)sulfonyl]pyrrolidin-3-amine], not below 7.00. Same read-out and setting: the result for `Cn1cnc(S(=O)(=O)N2C[C@@H](Nc3ccc(F)c(Cl)c3)[C@H](c3ncccc3F)C2)c1` (relative stereo) [Example 771, Trans-N-(3-chloro-4-fluorophenyl)-4-(3-fluoropyridin-2-yl)-1-[(1-methyl-1H-imidazol-4-yl)sulfonyl]pyrrolidin-3-amine] reads not below 7.00; that for `Cn1cnc(S(=O)(=O)N2C[C@H](NCc3ccc(C(F)(F)F)cc3Cl)[C@@H](c3ccccc3)C2)c1` [Example 394, (3R,4S)-N-[2-chloro-4-(trifluoromethyl)benzyl]-1-[(1-methyl-1H-imidazol-4-yl)sulfonyl]-4-phenylpyrrolidin-3-amine], not below 8.00. For `Cc1cc(N[C@H]2CN(S(=O)(=O)c3cn(C)cn3)C[C@@H]2c2ccccc2)ncn1` [Example 637, 6-methyl-N-{(3R,4S)-1-[(1-methyl-1H-imidazol-4-yl)sulfonyl]-4-phenylpyrrolidin-3-yl}pyrimidin-4-amine], under setting [1], the pKi was not below 5.00. As for `Cn1cnc(S(=O)(=O)N2C[C@@H](NCc3ccc(C(F)(F)F)cc3Cl)[C@H](C3CCCO3)C2)c1` (relative stereo) [Example 822, Trans-N-[2-chloro-4-(trifluoromethyl)benzyl]-1-[(1-methyl-1H-imidazol-4-yl)sulfonyl]-4-(tetrahydrofuran-2-yl)pyrrolidin-3-amine], the negative logarithm of the Ki (pKi) under setting [2] was not below 6.00. Consider `Cn1cnc(S(=O)(=O)N2C[C@@H](C(=O)c3ccc(F)c(F)c3)[C@H](c3ccc(F)cc3)C2)c1` (relative stereo) [Example 357, (3,4-Difluorophenyl){trans-4-(4-fluorophenyl)-1-[(1-methyl-1H-imidazol-4-yl)sulfonyl]pyrrolidin-3-yl}methanone], for which, under setting [1], the negative logarithm of the Ki (pKi) is not below 6.00. In the case of `Cn1cnc(S(=O)(=O)N2C[C@@H](Nc3ccc(C(F)(F)F)cc3)[C@H](c3ccccc3Cl)C2)c1` (relative stereo) [Example 256, trans-4-(2-chlorophenyl)-1-[(1-methyl-1H-imidazol-4-yl)sulfonyl]-N-[4-(trifluoromethyl)phenyl]pyrrolidin-3-amine], the negative-log Ki (pKi) under setting [1] was not below 6.00. The same measure, in the same setting: the result for `Cn1cnc(S(=O)(=O)N2C[C@H](NCc3nc(Br)cs3)[C@@H](c3ccccc3)C2)c1` [Example 472, (3R,4S)-N-[(4-bromo-1,3-thiazol-2-yl)methyl]-1-[(1-methyl-1H-imidazol-4-yl)sulfonyl]-4-phenylpyrrolidin-3-amine] reads not below 6.00; that for `CCCCCCO[C@H]1CN(S(=O)(=O)c2cn(C)cn2)C[C@@H]1c1ccc(F)cc1` [Example 625, 4-{[(3S,4R)-3-(4-fluorophenyl)-4-(hexyloxy)pyrrolidin-1-yl]sulfonyl}-1-methyl-1H-imidazole], not below 8.00.

On to `Cn1cnc(S(=O)(=O)N2C[C@H](NCC3(C)CCOCC3)[C@@H](c3ccccc3)C2)c1` [Example 429, (3R,4S)-1-[(1-methyl-1H-imidazol-4-yl)sulfonyl]-N-[(4-methyltetrahydro-2H-pyran-4-yl)methyl]-4-phenylpyrrolidin-3-amine], for which the negative logarithm of the Ki (pKi) under setting [1] is less than 5.00.

Take `Cn1cnc(S(=O)(=O)N2C[C@@H](Nc3cccc(Cl)c3)[C@H](c3ccc(F)cc3)C2)c1` (relative stereo) [Example 94, trans-N-(3-chlorophenyl)-4-(4-fluorophenyl)-1-[(1-methyl-1H-imidazol-4-yl)sulfonyl]pyrrolidin-3-amine]: the pKi under setting [1] is not below 8.00.
